# Reference: EP1763300B1 (priority 2004, dated 2006)
# How the values were obtained:
# Format in all cases: physicochemical
# [1] = Solubility in distilled water; conditions: no polymer, read-out: Löslichkeit in destilliertem Wasser
# Excerpt: Verschiedene schlecht wasserlösliche Substanzen wurden eingesetzt, um die Eignung der erfindungsgemäßen Polymere als Lösungsvermittler zu testen. Tabelle 1
# [2] = Solubilisation with polymer of Herstellungsbeispiel 1 by Verfahren 1 (solid solution), HPLC-UV; conditions: buffer with polymer, pH 6, 1440 min
# [3] = Solubilisation with polymer of Herstellungsbeispiel 2 by Verfahren 1 (solid solution), HPLC-UV; conditions: buffer with polymer, pH 6, 1440 min
# Experimental: 0,5 g eines Polymers und 0,1 g einer ausgewählten Substanz wurden in DMF (ca. 20 ml) gelöst. Das Gemisch wurde gerührt und DMF wurde vollständig evaporiert, so daß eine […] der organischen Moleküle in dem Polymer erhalten wurde. […] […] Nach der Filtration wurde die Lösung mittels HPLC analysiert (Detektor UV) und die Konzentration der Substanzen bestimmt.
SMILES,solubility [1] [µg/mL],Löslichkeit in Gegenwart von Polymer [2],in Gegenwart von Polymer [3] [mg/L]
CCOC(=O)/C(Cl)=C/c1cc(N2C(=O)C3=C(CCCC3)C2=O)ccc1Cl [Cinidon-Ethyl],0.057,"0,5 mg/l",57
CC1(C)CCC(Cc2ccc(Cl)cc2)C1(O)Cn1cncn1 (centres unmarked) [Metconazol],15,–,–
CN1C(C(=O)Nc2ccccn2)=C(O)c2ccccc2S1(=O)=O [Piroxicam],23,92 mg/L,167
COC(=O)N(OC)c1ccccc1COc1ccn(-c2ccc(Cl)cc2)n1 [Pyraclostrobin],2.4,–,–
"CCCCC(CC)COC(=O)c1ccc(Nc2nc(Nc3ccc(C(=O)OCC(CC)CCCC)cc3)nc(Nc3ccc(C(=O)OCC(CC)CCCC)cc3)n2)cc1 (centres unmarked) [Uvinul T150®, Octyltriazon]",0.007,"2,3 mg/l",79
